Data on 13 molecules can be found in patent publication US11186544B2 (BRISTOL-MYERS SQUIBB COMPANY, priority 2017, dated 2021).

The target of one test is human FPR2 (Homo sapiens (Human), UniProt P25090). Description: FPR2 cyclic adenosine monophosphate (cAMP) assay. The following applies: CHO cells overexpressing human FPR2. The class given is cell-based. The protocol:
FPR2 and FPR1 Cyclic Adenosine Monophosphate (cAMP) Assays. A mixture of forskolin (5 μM final for FPR2 or 10 μM final for FPR1) and IBMX (200 μM final) were added to 384-well Proxiplates (Perkin-Elmer) pre-dotted with test compounds in DMSO (1% final) at final concentrations in the range of 0.020 nM to 100 μM. Chinese Hamster Ovary cells (CHO) overexpressing human FPR1 or human FPR2 receptors were cultured in F-12 (Ham's) medium supplemented with 10% qualified FBS, 250 μg/ml zeocin and 300 μg/ml hygromycin (Life Technologies). Reactions were initiated by adding 2,000 human FPR2 cells per well or 4,000 human FPR1 cells per well in Dulbecco's PBS (with calcium and magnesium) (Life Technologies) supplemented with 0.1% BSA (Perkin-Elmer). The reaction mixtures were incubated for 30 min at room temperature. The level of intracellular cAMP was determined using the HTRF HiRange cAMP assay reagent kit (Cisbio) according to manufacturer's instruction. Solutions of cryptate conjugated anti-cAMP and d2 flurorophore-labelled cAMP were made in a supplied lysis buffer separately. Upon completion of the reaction, the cells were lysed with equal volume of the d2-cAMP solution and anti-cAMP solution. […] The potency and activity of a compound to inhibit cAMP production was then determined by fitting to a 4-parametric logistic equation from a plot of cAMP level versus compound concentrations.

In another test the target is human FPR1 (Homo sapiens (Human), UniProt P21462). Description: FPR1 cyclic adenosine monophosphate (cAMP) assay. The class given is cell-based. As to conditions: CHO cells overexpressing human FPR1; inhibition of forskolin (10 μM) stimulated cAMP; read-out: hFPR1 cAMP EC50. The protocol: FPR2 and FPR1 Cyclic Adenosine Monophosphate (cAMP) Assays. A mixture of forskolin (5 μM final for FPR2 or 10 μM final for FPR1) and IBMX (200 μM final) were added to 384-well Proxiplates (Perkin-Elmer) pre-dotted with test compounds in DMSO (1% final) at final concentrations in the range of 0.020 nM to 100 μM. Chinese Hamster Ovary cells (CHO) overexpressing human FPR1 or human FPR2 receptors were cultured in F-12 (Ham's) medium supplemented with 10% qualified FBS, 250 μg/ml zeocin and 300 μg/ml hygromycin (Life Technologies). Reactions were initiated by adding 2,000 human FPR2 cells per well or 4,000 human FPR1 cells per well in Dulbecco's PBS (with calcium and magnesium) (Life Technologies) supplemented with 0.1% BSA (Perkin-Elmer). The reaction mixtures were incubated for 30 min at room temperature. The level of intracellular cAMP was determined using the HTRF HiRange cAMP assay reagent kit (Cisbio) according to manufacturer's instruction. Solutions of cryptate conjugated anti-cAMP and d2 flurorophore-labelled cAMP were made in a supplied lysis buffer separately. Upon completion of the reaction, the cells were lysed with equal volume of the d2-cAMP solution and anti-cAMP solution. After a 1-h room temperature incubation, time-resolved fluorescence intensity was measured using the Envision (Perkin-Elmer) at 400 nm excitation and dual emission at 590 nm and 665 nm. A calibration curve was constructed with an external cAMP standard at concentrations ranging from 1 μM to 0.1 pM by plotting the fluorescent intensity ratio from 665 nm emission to the intensity from the 590 nm emission against cAMP concentrations. The potency and activity of a compound to inhibit cAMP production was then determined by fitting to a 4-parametric logistic equation from a plot of cAMP level versus compound concentrations.

Where [1] appears, read: inhibition of forskolin (5 μM) stimulated cAMP, read-out: hFPR2 cAMP2 EC50.
The mark [2] stands for this setting: hFPR2 Assay, read-out: hFPR2 agonist activity EC50.

SMILES strings stand for the structures. Like-named read-outs stand apart in the source and are kept apart here.

human FPR2, sequence (P25090 whole entry): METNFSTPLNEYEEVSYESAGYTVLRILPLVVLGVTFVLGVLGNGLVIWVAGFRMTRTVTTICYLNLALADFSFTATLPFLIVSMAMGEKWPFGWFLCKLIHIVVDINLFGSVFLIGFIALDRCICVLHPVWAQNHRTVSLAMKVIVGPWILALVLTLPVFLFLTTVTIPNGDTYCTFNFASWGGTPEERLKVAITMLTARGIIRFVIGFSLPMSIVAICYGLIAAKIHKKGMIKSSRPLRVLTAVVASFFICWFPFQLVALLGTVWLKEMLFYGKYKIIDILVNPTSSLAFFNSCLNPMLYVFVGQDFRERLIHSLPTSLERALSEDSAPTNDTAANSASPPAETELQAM
human FPR1, sequence (P21462 whole entry): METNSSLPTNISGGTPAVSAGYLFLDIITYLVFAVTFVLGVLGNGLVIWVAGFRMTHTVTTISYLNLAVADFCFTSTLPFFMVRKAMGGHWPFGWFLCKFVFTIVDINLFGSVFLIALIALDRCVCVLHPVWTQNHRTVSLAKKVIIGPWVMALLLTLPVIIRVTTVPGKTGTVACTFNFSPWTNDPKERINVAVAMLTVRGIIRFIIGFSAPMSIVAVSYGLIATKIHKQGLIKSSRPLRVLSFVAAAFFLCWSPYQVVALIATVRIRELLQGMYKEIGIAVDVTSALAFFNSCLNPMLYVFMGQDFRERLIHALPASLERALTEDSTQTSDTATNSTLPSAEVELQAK

The term EC50 denotes the concentration needed to bring the measured effect to its halfway point. `Cc1ccc(NC(=O)NC2CCCN(c3ccc(-c4cccnc4)cc3)C2=O)cc1` (stereo not shown) [Example 15]: the EC50 on human FPR2 (setting [1]) worked out at 8.4 nM; on human FPR1 it was 200 nM. Taken in the same sequence, the figures for `O=C(Nc1ccc(Cl)cc1)NC1CCCN(c2ccc(-c3cccnc3)cc2)C1=O` (stereo not shown) [Example 16, 1-(4-chlorophenyl)-3-(2-oxo-1-(4-(pyridin-3-yl)phenyl)piperidin-3-yl)urea] were 9.3 nM and 390 nM. In the case of `COc1ccc(NC(=O)NC2CCCN(c3ccc(-c4ccccc4S(C)(=O)=O)cc3F)C2=O)cc1` (stereo not shown) [Example 17, 1-(1-(3-fluoro-2′-(methylsulfonyl)-[1,1′-biphenyl]-4-yl)-2-oxopiperidin-3-yl)-3-(4-methoxyphenyl)urea], the figures for the half-maximal effective concentration (EC50) on human FPR2 (setting [1]) and at human FPR1 were 10 nM and 170 nM, respectively. Taken in the same sequence, the figures for `Cc1cnc(NC(=O)NC2CCCN(c3ccc(-c4ccccc4S(C)(=O)=O)cc3F)C2=O)s1` (stereo not shown) [Example 26, 1-(1-(3-fluoro-2′-(methylsulfonyl)-[1,1′-biphenyl]-4-yl)-2-oxopiperidin-3-yl)-3-(5-methylthiazol-2-yl)urea] were 380 nM and 210 nM.

Take `CS(=O)(=O)c1ccccc1-c1ccc(N2CCCC(NC(=O)Nc3ccc(Cl)nn3)C2=O)c(F)c1` (stereo not shown) [Example 27, 1-(6-chloropyridazin-3-yl)-3-(1-(3-fluoro-2′-(methylsulfonyl)-[1,1′-biphenyl]-4-yl)-2-oxopiperidin-3-yl)urea]: the results for the concentration for a half-maximal effect (EC50) at human FPR2 (setting [1]) and on human FPR1 were 400 nM and 950 nM, respectively. With `CS(=O)(=O)c1ccccc1-c1ccc(N2CCCC(NC(=O)Nc3ccc(F)cc3)C2=O)c(F)c1` (stereo not shown) [Example 28, 1-(1-(3-fluoro-2′-(methylsulfonyl)-[1,1′-biphenyl]-4-yl)-2-oxopiperidin-3-yl)-3-(4-fluorophenyl)urea], the 50% effective concentration (EC50) at human FPR2 (setting [1]) stood at 560 nM; at human FPR1, 1200 nM. For the molecule `O=C(Nc1ccc(Cl)cn1)N[C@@H]1C[C@@H](O)CN(c2ccc(-c3ccccc3F)cc2)C1=O` [Example 269, 1-(5-Chloropyridin-2-yl)-3-((3R,5R)-1-(2′-fluoro-[1,1′-biphenyl]-4-yl)-5-hydroxy-2-oxopiperidin-3-yl)urea], the EC50 on human FPR2 (setting [2]) lay in the range of 5 to 40 nM.

For the molecule `CC(N)c1cccc(-c2ccc(N3CCC[C@@H](NC(=O)Nc4ccc(Cl)cc4F)C3=O)c(F)c2F)c1` (stereo partly drawn) [Example 274, 1-((3R)-1-(3′-(1-Aminoethyl)-2,3-difluoro-[1,1′-biphenyl]-4-yl)-2-oxopiperidin-3-yl)-3-(4-chloro-2-fluorophenyl)urea], the EC50 on human FPR2 (setting [2]) was not above 5 nM. Same read-out and setting: the figure for `N#Cc1ccccc1-c1ccc(N2CCC[C@@H](NC(=O)Nc3cnc(Cl)cn3)C2=O)c(F)c1F` [Example 275, (R)-1-(5-Chloropyrazin-2-yl)-3-(1-(2′-cyano-2,3-difluoro-[1,1′-biphenyl]-4-yl)-2-oxopiperidin-3-yl)urea] is not above 5 nM; for `CS(=O)(=O)Nc1cccc(-c2ccc(N3CCC[C@@H](NC(=O)Nc4ccc(Cl)cc4)C3=O)cc2)c1F` [Example 278, (R)-N-(4′-(3-(3-(4-Chlorophenyl)ureido)-2-oxopiperidin-1-yl)-2-fluoro-[1,1′-biphenyl]-3-yl)methanesulfonainide] it is not above 5 nM; for `CS(=O)(=O)Nc1c(F)cccc1-c1ccc(N2CCC[C@@H](NC(=O)Nc3ccc(Cl)cc3)C2=O)cc1` [Example 279, (R)-N-(4′-(3-(3-(4-Chlorophenyl)ureido)-2-oxopiperidin-1-yl)-3-fluoro-[1,1′-biphenyl]-2-yl]methanesulfonamide] it is not above 5 nM. Same read-out and setting: with `CC(N)c1cccc(-c2ccc(N3CCC[C@@H](NC(=O)Nc4ccc(C(F)(F)F)cn4)C3=O)c(F)c2F)c1` (stereo partly drawn) [Example 280, 1-((3R)-1-(3′-(1-Aminoethyl)-2,3-difluoro-[1,1′-biphenyl]-4-yl)-2-oxopiperidin-3-yl)-3-(5-(trifluoromethyl)pyridin-2-yl)urea] the figure was 5 to 40 nM; with `CS(=O)(=O)Nc1ccccc1-c1ccc(N2CCC[C@@H](NC(=O)Nc3ccc(Cl)cc3)C2=O)cc1OC(F)(F)F` [Example 300], 5 to 40 nM.
